The subject of the assay is mice. The assay can be described thus: Neuropharmacological Assay (SmartCube): automated behavioral signature of compound-treated mice compared with a database of reference drug classes. To be noted: for minimal effective dose: Mus musculus, ip. It counts as in vivo. The source says:
Neurosci. 2011 Sep. 9; 5: 103 (doi: 10.3389/fnins.2011.00103) (“Roberds”). As reported in Roberds, because psychiatric diseases generally result from disorders of cell-cell communication or circuitry, intact systems are useful in detecting improvement in disease-relevant endpoints. These endpoints are typically behavioral in nature, often requiring human observation and interpretation. To facilitate testing of multiple compounds for behavioral effects relevant to psychiatric disease, PsychoGenics, Inc. (Tarrytown, NY, “PGI”) developed SmartCube™ an automated system in which behaviors of compound-treated mice are captured by digital video and analyzed with computer algorithms. (D. Brunner et al. Drug Discov. Today 2002, 7:S107-S112). PGI Analytical Systems uses data from SmartCube™ to compare the behavioral signature of a test compound to a database of behavioral signatures obtained using a large set of diverse reference compounds. (The composition of the database as well as validation of the method is further described in Roberds). In this way, the neuropharmacological effects of a test compound can be predicted by similarity to major classes of compounds, such as antipsychotics, anxiolytics and antidepressants.
The SmartCube™ system produces an activity signature indicating the probability that the activity of the test compound at the administered dose matches a given class of neuropharmacological agents. (See, e.g., Roberds, FIGS. 2 and 3). The test compound is simultaneously compared against multiple classes of agents; thus, a separate probability is generated for each behavioral effect measured (e.g., anxiolytic activity, analgesic activity, etc.). In table 2 below, these probabilities are reported for each behavioral effect measured as described in Table 1 below.
Provided compounds were dissolved in a mixture of Pharmasolve™ (N-methyl-2-pyrrolidone), polyethylene glycol and propylene glycol, and were injected i.p. 15 min. before the behavioral test. For each compound, injections were administered at 3 different doses. For each behavioral effect measured, results for the 3.0 mg/kg dose are presented. The potency of many of the compounds in the table was also determined in the SmartCube™ system. Test compounds were routinely examined at dose levels of 0.3, 1, 3 and 10 mg per kg (mpk), although the dose range was increased or decreased, if necessary, to obtain a full dose response curve. A compound's minimal effective dose (MED) is a measure of the compound's potency. The MED was defined as the dose (in mpk) having 45% or more total activity in SmartCube. If only one dose was tested, that dose is shown in the MED column of Table 2 even though the dose is not known to be the MED.

The mark [1] stands for this setting: SmartCube class probability, 3.0 mg/kg i.p., 15 min before test.
[2] abbreviates: SmartCube class probability, 3.0 mg/kg i.p., 15 min before test, hydrochloride, 3 mg/kg.
The mark [3] stands for this setting: probability that activity matches this class of agents, 3.0 mg/kg i.p., 15 min before test.
Setting [4] is: probability that activity matches this class of agents, 3.0 mg/kg i.p., 15 min before test, hydrochloride, 3 mg/kg.
Where [5] appears, read: minimal effective dose: dose having 45% or more total activity in SmartCube, i.p., if only one dose tested, that dose is shown, read-out: MED.
[6] abbreviates: SmartCube class probability, 3.0 mg/kg i.p., 15 min before test, 3 mg/kg.
Setting [7] is: SmartCube probability class, 3.0 mg/kg dose, i.p. 15 min before the behavioral test.
The mark [8] stands for this setting: SmartCube probability class, 3.0 mg/kg dose, i.p. 15 min before the behavioral test, hydrochloride, 3 mg/kg.

Where a name gives a salt, the structure may show the parent alone. Read-outs that look alike come from different tables or passages of the source.

In the case of `CNC1CCc2scc(C#N)c2C1` (single isomer, unassigned) [Compound 175, 5-(methylamino)-4,5,6,7-tetrahydrobenzothiophene-3-carbonitrile hydrochloride], under setting [1], the AD entry is “ND (^ <4%)”, the AG entry was “ND (^ <4%)”, the AN entry is recorded as “ND (^ <4%)” and the AP entry is reported as “ND (^ <4%)”. Moreover, under setting [1], the CE entry was “ND (^ <4%)”, the HL entry was “ND (^ <4%)”, the MS result is recorded as “ND (^ <4%)” and the PS result was “ND (^ <4%)”. Further, under setting [1], the SH entry was “+ (≥4%)” and the UK result is listed as “ND (^ <4%)”. Also, the AX result under setting [2] is recorded as “+++ (≥49%)”. This compound registered an MED (minimal effective dose: dose having 45% or more total activity in SmartCube, i.p., if only one dose tested, that dose is shown, hydrochloride) of 3 mpk.

On to `CNC1(C)CCc2ccsc2C1` (single isomer, unassigned) [Compound 49, N, 6-dimethyl-5,7-dihydro-4H-benzothiophen-6-amine hydrochloride], for which the “MED (minimal effective dose)” value (dose having 45% or more total activity in SmartCube, i.p., if only one dose was tested, that dose is shown, hydrochloride) stood at 1.0 mpk. Under setting [3], the AG result is listed as “ND (^ <4%)”, the AN entry is listed as “ND (^ <4%)”, the AP entry is “ND (^ <4%)” and the HL entry is reported as “ND (^ <4%)”. Further, under setting [3], the PS entry was “ND (^ <4%)”, the SH entry is reported as “ND (^ <4%)” and the UK entry is on record as “ND (^ <4%)”. In addition, under setting [4], the AD entry is recorded as “++ (≥24%)”, the AX result is reported as “++ (≥24%)”, the CE result is listed as “+ (≥4%)” and the MS entry is “+ (≥4%)”.

In the case of `NC1CCc2csc(C3CC3)c2C1` (stereo not drawn) [Compound 193, 3-cyclopropyl-4,5,6,7-tetrahydro-2-benzothiophen-5-amine hydrochloride], the minimal effective dose under setting [5] was over 3 mg/kg. Further, under setting [1], the AD result is “ND (^ <4%)”, the AG entry is given as “ND (^ <4%)”, the AN entry is given as “+ (≥4%)” and the AP entry was “ND (^ <4%)”. Under setting [1], the AX result is recorded as “ND (^ <4%)”, the CE result is on record as “ND (^ <4%)”, the HL entry is recorded as “ND (^ <4%)” and the MS result was “ND (^ <4%)”. Under setting [1], the PS result is listed as “ND (^ <4%)”, the SH entry is on record as “ND (^ <4%)” and the UK result is given as “ND (^ <4%)”.

In the case of `NC1CCc2cscc2C1` (single isomer, unassigned) [Compound 166, 4,5,6,7-tetrahydro-2-benzothiophen-5-amine hydrochloride], the minimal effective dose under setting [5] worked out at 1 mg/kg. Also, under setting [1], the AG result is reported as “ND (^ <4%)”, the AN result is “ND (^ <4%)”, the AX entry was “+++ (≥49%)” and the CE entry is on record as “ND (^ <4%)”. Moreover, under setting [1], the HL entry is “ND (^ <4%)”, the MS result is listed as “ND (^ <4%)”, the SH entry is “ND (^ <4%)” and the UK result is “ND (^ <4%)”. Besides, under setting [2], the AD result is recorded as “+ (≥4%)”, the AP entry is “++ (≥24%)” and the PS entry was “ND (^ <4%)”.

On to `CNC1(C)CCc2c(F)csc2C1` (stereo not drawn) [Compound 109, 3-fluoro-N, 6-dimethyl-5,7-dihydro-4H-benzothiophen-6-amine hydrochloride], for which, where the note is “dose having 45% or more total activity in SmartCube, i.p., if only one dose was tested, that dose is shown, read-out: MED (minimal effective dose)”, the minimal effective dose is under 3 mg/kg. Under setting [3], the AD result is “++++ (≥74%)”, the AG entry is “ND (^ <4%)”, the AN entry is reported as “ND (^ <4%)” and the AP result is “ND (^ <4%)”. In addition, under setting [3], the AX result is listed as “ND (^ <4%)”, the CE result is listed as “ND (^ <4%)”, the HL result was “ND (^ <4%)” and the MS entry was “ND (^ <4%)”. In addition, under setting [3], the PS result was “ND (^ <4%)”, the SH result is recorded as “ND (^ <4%)” and the UK entry was “ND (^ <4%)”.

`CC1(N2CCCC2)CCc2ccsc2C1` (single isomer, unassigned) [Compound 276, 1-(6-methyl-4,5,6,7-tetrahydrobenzo[b]thiophen-6-yl)pyrrolidine]: under setting [1], the AD result is reported as “ND (^ <4%)”, the AG result is recorded as “ND (^ <4%)”, the AN entry is on record as “ND (^ <4%)” and the AP result is reported as “ND (^ <4%)”. For the same compound, under setting [1], the CE result is “ND (^ <4%)”, the HL result is listed as “ND (^ <4%)”, the MS entry is listed as “ND (^ <4%)” and the SH result is listed as “ND (^ <4%)”. For the same compound, under setting [1], the UK result is “ND (^ <4%)”. Besides, under setting [6], the AX result is reported as “++++ (≥74%)” and the PS entry is “ND (^ <4%)”. Moreover, for the setting “minimal effective dose: dose having 45% or more total activity in SmartCube, i.p., if only one dose tested, that dose is shown”, the MED is 3 mpk.

As for `Cc1cc2c(s1)CC(N)CO2` (stereo not drawn) [Compound 188, 2-methyl-6,7-dihydro-5H-thieno[3,2-b]pyran-6-amine hydrochloride], the minimal effective dose under setting [5] is over 3 mg/kg. Further, under setting [1], the AD result is “ND (^ <4%)”, the AG result is listed as “ND (^ <4%)”, the AN result is “ND (^ <4%)” and the AP entry was “ND (^ <4%)”. Besides, under setting [1], the AX result is listed as “+ (≥4%)”, the CE result is reported as “ND (^ <4%)”, the HL result is listed as “ND (^ <4%)” and the MS entry is given as “ND (^ <4%)”. Besides, under setting [1], the PS entry is listed as “ND (^ <4%)”, the SH entry was “ND (^ <4%)” and the UK entry is reported as “++ (≥24%)”.

`CNC1(C)CCc2scc(C(F)(F)F)c2C1` (stereo not drawn) [Compound 190, N, 5-dimethyl-3-(trifluoromethyl)-6,7-dihydro-4H-benzothiophen-5-amine hydrochloride]: the minimal effective dose under setting [5] was over 3 mg/kg. Moreover, under setting [1], the AD entry was “ND (^ <4%)”, the AG entry was “ND (^ <4%)”, the AN entry is reported as “ND (^ <4%)” and the AP entry is “ND (^ <4%)”. For the same compound, under setting [1], the AX entry is listed as “ND (^ <4%)”, the CE entry is reported as “ND (^ <4%)”, the HL result is reported as “ND (^ <4%)” and the MS result is “ND (^ <4%)”. Moreover, under setting [1], the PS result is “ND (^ <4%)”, the SH entry is “ND (^ <4%)” and the UK result is listed as “+ (≥4%)”.

As to `CC1(N)CCc2sccc2C1` (single isomer, unassigned) [Compound 282, 5-methyl-4,5,6,7-tetrahydrobenzo[b]thiophen-5-amine hydrochloride], under setting [7], the AD entry was “++++ (≥74%)”, the AG entry is reported as “ND (^ <4%)”, the AN entry is on record as “ND (^ <4%)” and the CE entry was “ND (^ <4%)”. Further, under setting [7], the HL entry is given as “ND (^ <4%)”, the MS entry is listed as “ND (^ <4%)”, the PS result is “ND (^ <4%)” and the SH entry is on record as “ND (^ <4%)”. For the same compound, the UK result under setting [7] is on record as “ND (^ <4%)”. Further, under setting [8], the AP entry is given as “ND (^ <4%)” and the AX result is “ND (^ <4%)”. The same compound displayed an MED (minimal effective dose: dose having 45% or more total activity in SmartCube, i.p., if only one dose was tested, that dose is shown) of 3 mpk.

For the compound `CNC1COc2c(C(F)(F)F)csc2C1` (single isomer, unassigned) [Compound 309, N-methyl-3-(trifluoromethyl)-6,7-dihydro-5H-thieno[3,2-b]pyran-6-amine hydrochloride], under setting [7], the AD entry is “ND (^ <4%)”, the AG result is reported as “ND (^ <4%)”, the AN entry was “ND (^ <4%)” and the AP entry was “ND (^ <4%)”. Under setting [7], the AX entry is listed as “ND (^ <4%)”, the CE entry was “ND (^ <4%)”, the HL result is on record as “ND (^ <4%)” and the MS entry is “ND (^ <4%)”. Further, under setting [7], the PS result is on record as “ND (^ <4%)” and the SH entry was “ND (^ <4%)”. Also, the UK result under setting [8] is “ND (^ <4%)”. The same compound yielded an MED (minimal effective dose: dose having 45% or more total activity in SmartCube, i.p., if only one dose was tested, that dose is shown, hydrochloride) of 1 mpk.
